Data published in the NIST ThermoML archive (doi:10.1016/j.jct.2018.02.003).
Values joined by “and” are separate entries in the source; they are usually repeats but may differ in a detail not shown here. Equal entries are not always repeated.

Settings: Liquid; for speed of sound: Frequency=3 MHz, Single path-length method; for mass density: Vibrating tube method

COC(F)(C(F)(F)C(F)(F)F)C(F)(C(F)(F)F)C(F)(F)F (configuration not stated)
Settings	mass density	speed of sound [m/s]
293.15 K, 100 kPa	1668.2 kg/m3 and 1668.43 kg/m3	644.5
293.15 K, 1000 kPa	1670.8 kg/m3	–
293.15 K, 5000 kPa	1681.9 kg/m3	–
293.15 K, 10000 kPa	1694.8 kg/m3	–
293.15 K, 15000 kPa	1706.6 kg/m3	–
293.15 K, 20000 kPa	1717.6 kg/m3	–
293.15 K, 25000 kPa	1727.9 kg/m3	–
293.15 K, 30000 kPa	1737.7 kg/m3	–
293.15 K, 35000 kPa	1746.9 kg/m3	–
293.15 K, 40000 kPa	1755.6 kg/m3	–
293.15 K, 45000 kPa	1764 kg/m3	–
293.15 K, 50000 kPa	1772 kg/m3	–
293.15 K, 55000 kPa	1779.7 kg/m3	–
293.15 K, 60000 kPa	1787 kg/m3	–
293.15 K, 65000 kPa	1794.1 kg/m3	–
293.15 K, 70000 kPa	1800.9 kg/m3	–
293.15 K, 80000 kPa	1814 kg/m3	–
293.15 K, 90000 kPa	1826.3 kg/m3	–
293.15 K, 100000 kPa	1837.8 kg/m3	–
293.15 K, 110000 kPa	1848.8 kg/m3	–
293.15 K, 120000 kPa	1859.3 kg/m3	–
293.15 K, 130000 kPa	1869.3 kg/m3	–
293.15 K, 140000 kPa	1878.8 kg/m3	–
298.15 K, 100 kPa	1656.7 kg/m3 and 1656.79 kg/m3	629.44
298.15 K, 1000 kPa	1659.4 kg/m3	–
298.15 K, 5000 kPa	1671 kg/m3	–
298.15 K, 10000 kPa	1684.4 kg/m3	–
298.15 K, 15000 kPa	1696.6 kg/m3	–
298.15 K, 20000 kPa	1708 kg/m3	–
298.15 K, 25000 kPa	1718.6 kg/m3	–
298.15 K, 30000 kPa	1728.6 kg/m3	–
298.15 K, 35000 kPa	1738.1 kg/m3	–
298.15 K, 40000 kPa	1747.1 kg/m3	–
298.15 K, 45000 kPa	1755.6 kg/m3	–
298.15 K, 50000 kPa	1763.8 kg/m3	–
298.15 K, 55000 kPa	1771.7 kg/m3	–
298.15 K, 60000 kPa	1779.3 kg/m3	–
298.15 K, 65000 kPa	1786.5 kg/m3	–
298.15 K, 70000 kPa	1793.4 kg/m3	–
298.15 K, 80000 kPa	1806.7 kg/m3	–
298.15 K, 90000 kPa	1819.1 kg/m3	–
298.15 K, 100000 kPa	1831 kg/m3	–
298.15 K, 110000 kPa	1842 kg/m3	–
298.15 K, 120000 kPa	1852.7 kg/m3	–
298.15 K, 130000 kPa	1862.8 kg/m3	–
298.15 K, 140000 kPa	1872.5 kg/m3	–
303.15 K, 100 kPa	1645.11 kg/m3	614.76
313.15 K, 100 kPa	1621.3 kg/m3 and 1621.41 kg/m3	585.65
313.15 K, 1000 kPa	1624.5 kg/m3	–
313.15 K, 5000 kPa	1637.7 kg/m3	–
313.15 K, 10000 kPa	1652.7 kg/m3	–
313.15 K, 15000 kPa	1666.3 kg/m3	–
313.15 K, 20000 kPa	1678.8 kg/m3	–
313.15 K, 25000 kPa	1690.4 kg/m3	–
313.15 K, 30000 kPa	1701.4 kg/m3	–
313.15 K, 35000 kPa	1711.6 kg/m3	–
313.15 K, 40000 kPa	1721.2 kg/m3	–
313.15 K, 45000 kPa	1730.5 kg/m3	–
313.15 K, 50000 kPa	1739.2 kg/m3	–
313.15 K, 55000 kPa	1747.6 kg/m3	–
313.15 K, 60000 kPa	1755.5 kg/m3	–
313.15 K, 65000 kPa	1763.3 kg/m3	–
313.15 K, 70000 kPa	1770.7 kg/m3	–
313.15 K, 80000 kPa	1784.8 kg/m3	–
313.15 K, 90000 kPa	1797.9 kg/m3	–
313.15 K, 100000 kPa	1810.2 kg/m3	–
313.15 K, 110000 kPa	1822 kg/m3	–
313.15 K, 120000 kPa	1832.9 kg/m3	–
313.15 K, 130000 kPa	1843.5 kg/m3	–
313.15 K, 140000 kPa	1853.5 kg/m3	–
323.15 K, 100 kPa	1597.04 kg/m3	557.04
333.15 K, 100 kPa	1572.7 kg/m3 and 1572.8 kg/m3	529.01
333.15 K, 1000 kPa	1576.5 kg/m3	–
333.15 K, 5000 kPa	1592.3 kg/m3	–
333.15 K, 10000 kPa	1609.9 kg/m3	–
333.15 K, 15000 kPa	1625.7 kg/m3	–
333.15 K, 20000 kPa	1639.8 kg/m3	–
333.15 K, 25000 kPa	1653 kg/m3	–
333.15 K, 30000 kPa	1665.2 kg/m3	–
333.15 K, 35000 kPa	1676.5 kg/m3	–
333.15 K, 40000 kPa	1687.3 kg/m3	–
333.15 K, 45000 kPa	1697.5 kg/m3	–
333.15 K, 50000 kPa	1707 kg/m3	–
333.15 K, 55000 kPa	1716.1 kg/m3	–
333.15 K, 60000 kPa	1724.7 kg/m3	–
333.15 K, 65000 kPa	1733.1 kg/m3	–
333.15 K, 70000 kPa	1741 kg/m3	–
333.15 K, 80000 kPa	1756.1 kg/m3	–
333.15 K, 90000 kPa	1770.2 kg/m3	–
333.15 K, 100000 kPa	1783.3 kg/m3	–
333.15 K, 110000 kPa	1795.6 kg/m3	–
333.15 K, 120000 kPa	1807.3 kg/m3	–
333.15 K, 130000 kPa	1818.5 kg/m3	–
333.15 K, 140000 kPa	1829.1 kg/m3	–
353.15 K, 100 kPa	1521.7 kg/m3	–
353.15 K, 1000 kPa	1526.5 kg/m3	–
353.15 K, 5000 kPa	1545.6 kg/m3	–
353.15 K, 10000 kPa	1566.5 kg/m3	–
353.15 K, 15000 kPa	1584.7 kg/m3	–
353.15 K, 20000 kPa	1601 kg/m3	–
353.15 K, 25000 kPa	1615.8 kg/m3	–
353.15 K, 30000 kPa	1629.5 kg/m3	–
353.15 K, 35000 kPa	1642.1 kg/m3	–
353.15 K, 40000 kPa	1653.7 kg/m3	–
353.15 K, 45000 kPa	1664.8 kg/m3	–
353.15 K, 50000 kPa	1675.2 kg/m3	–
353.15 K, 55000 kPa	1685.1 kg/m3	–
353.15 K, 60000 kPa	1694.5 kg/m3	–
353.15 K, 65000 kPa	1703.5 kg/m3	–
353.15 K, 70000 kPa	1712.1 kg/m3	–
353.15 K, 80000 kPa	1728.1 kg/m3	–
353.15 K, 90000 kPa	1743.1 kg/m3	–
353.15 K, 100000 kPa	1757 kg/m3	–
353.15 K, 110000 kPa	1770.1 kg/m3	–
353.15 K, 120000 kPa	1782.5 kg/m3	–
353.15 K, 130000 kPa	1794.1 kg/m3	–
353.15 K, 140000 kPa	1805.2 kg/m3	–
373.15 K, 1000 kPa	1473.5 kg/m3	–
373.15 K, 5000 kPa	1497.1 kg/m3	–
373.15 K, 10000 kPa	1521.9 kg/m3	–
373.15 K, 15000 kPa	1543.1 kg/m3	–
373.15 K, 20000 kPa	1561.5 kg/m3	–
373.15 K, 25000 kPa	1578.3 kg/m3	–
373.15 K, 30000 kPa	1593.7 kg/m3	–
373.15 K, 35000 kPa	1607.7 kg/m3	–
373.15 K, 40000 kPa	1620.4 kg/m3	–
373.15 K, 45000 kPa	1632.5 kg/m3	–
373.15 K, 50000 kPa	1643.9 kg/m3	–
373.15 K, 55000 kPa	1654.6 kg/m3	–
373.15 K, 60000 kPa	1664.7 kg/m3	–
373.15 K, 65000 kPa	1674.3 kg/m3	–
373.15 K, 70000 kPa	1683.4 kg/m3	–
373.15 K, 80000 kPa	1700.6 kg/m3	–
373.15 K, 90000 kPa	1716.5 kg/m3	–
373.15 K, 100000 kPa	1731.3 kg/m3	–
373.15 K, 110000 kPa	1745.1 kg/m3	–
373.15 K, 120000 kPa	1758.1 kg/m3	–
373.15 K, 130000 kPa	1770.3 kg/m3	–
373.15 K, 140000 kPa	1782 kg/m3	–
393.15 K, 1000 kPa	1417.2 kg/m3	–
393.15 K, 5000 kPa	1446.9 kg/m3	–
393.15 K, 10000 kPa	1476.7 kg/m3	–
393.15 K, 15000 kPa	1501.4 kg/m3	–
393.15 K, 20000 kPa	1522.8 kg/m3	–
393.15 K, 25000 kPa	1541.5 kg/m3	–
393.15 K, 30000 kPa	1558.4 kg/m3	–
393.15 K, 35000 kPa	1573.8 kg/m3	–
393.15 K, 40000 kPa	1588 kg/m3	–
393.15 K, 45000 kPa	1601 kg/m3	–
393.15 K, 50000 kPa	1613.3 kg/m3	–
393.15 K, 55000 kPa	1624.9 kg/m3	–
393.15 K, 60000 kPa	1635.8 kg/m3	–
393.15 K, 65000 kPa	1646 kg/m3	–
393.15 K, 70000 kPa	1655.8 kg/m3	–
393.15 K, 80000 kPa	1674.1 kg/m3	–
393.15 K, 90000 kPa	1690.9 kg/m3	–
393.15 K, 100000 kPa	1706.5 kg/m3	–
393.15 K, 110000 kPa	1721 kg/m3	–
393.15 K, 120000 kPa	1734.7 kg/m3	–
393.15 K, 130000 kPa	1747.5 kg/m3	–
393.15 K, 140000 kPa	1759.7 kg/m3	–
